Experimental data: PubChem BioAssay (NCI)
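Briefly, cells in 96-well plates were exposed to five compound concentrations for 48 h, and endpoints were estimated by linear interpolation. Abbreviation: GI50, concentration required for 50% inhibition of growth. TGI is the concentration that stops growth completely.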

Assays:
Assay in all cases: NCI anticancer screen, dose series, 48 h
HOP-62 NSCLC = tested on: HOP-62 NSCLC
EKVX NSCLC = tested on: EKVX NSCLC
UO-31 renal = tested on: UO-31 renal
NCI-H460 lung = tested on: NCI-H460 lung
HT29 colon = tested on: HT29 colon
A549 NSCLC = tested on: A549 NSCLC
MOLT-4 leukemia = tested on: MOLT-4 leukemia
OVCAR-8 ovarian = tested on: OVCAR-8 ovarian
SNB-75 CNS = tested on: SNB-75 CNS
UACC-257 melanoma = tested on: UACC-257 melanoma
SN12C renal = tested on: SN12C renal
OVCAR-4 ovarian = tested on: OVCAR-4 ovarian
SNB-19 CNS = tested on: SNB-19 CNS
HS 578T breast = tested on: HS 578T breast
ACHN renal = tested on: ACHN renal
HCT-15 colon = tested on: HCT-15 colon
LOX IMVI melanoma = tested on: LOX IMVI melanoma
MDA-MB-231 breast = tested on: MDA-MB-231 breast
PC-3 prostate = tested on: PC-3 prostate
IGROV1 ovarian = tested on: IGROV1 ovarian
M14 melanoma = tested on: M14 melanoma
HOP-92 NSCLC = tested on: HOP-92 NSCLC
SW-620 colon = tested on: SW-620 colon
SR leukemia = tested on: SR leukemia
NCI-H522 lung = tested on: NCI-H522 lung
K-562 leukemia = tested on: K-562 leukemia
MCF7 breast = tested on: MCF7 breast
NCI-H23 lung = tested on: NCI-H23 lung
SF-295 CNS = tested on: SF-295 CNS
CCRF-CEM leukemia = tested on: CCRF-CEM leukemia
SK-MEL-5 melanoma = tested on: SK-MEL-5 melanoma
RPMI-8226 leukemia = tested on: RPMI-8226 leukemia
U251 CNS = tested on: U251 CNS
SK-OV-3 ovarian = tested on: SK-OV-3 ovarian
HL-60(TB) leukemia = tested on: HL-60(TB) leukemia
SF-539 CNS = tested on: SF-539 CNS
BT-549 breast = tested on: BT-549 breast
HCT-116 colon = tested on: HCT-116 colon
SK-MEL-28 melanoma = tested on: SK-MEL-28 melanoma
MDA-MB-435 = tested on: MDA-MB-435
COLO 205 colon = tested on: COLO 205 colon
TK-10 renal = tested on: TK-10 renal
RXF 393 renal = tested on: RXF 393 renal
UACC-62 melanoma = tested on: UACC-62 melanoma
T-47D breast = tested on: T-47D breast
OVCAR-3 ovarian = tested on: OVCAR-3 ovarian
DU-145 prostate = tested on: DU-145 prostate
SK-MEL-2 melanoma = tested on: SK-MEL-2 melanoma
KM12 colon = tested on: KM12 colon
SF-268 CNS = tested on: SF-268 CNS
786-0 renal = tested on: 786-0 renal
HCC-2998 colon = tested on: HCC-2998 colon
NCI-H226 lung = tested on: NCI-H226 lung
MALME-3M melanoma = tested on: MALME-3M melanoma
NCI/ADR-RES ovarian = tested on: NCI/ADR-RES ovarian
CAKI-1 renal = tested on: CAKI-1 renal
A498 renal = tested on: A498 renal
OVCAR-5 ovarian = tested on: OVCAR-5 ovarian

SMILES: CC(=O)OC1Oc2cc(C)c(C)cc2-c2oc(=O)c(-c3ccc(F)cc3)cc21 (stereo unspecified)
- GI50 (HOP-62 NSCLC): 12.9 µM
- TGI (HOP-62 NSCLC): 72.5 µM
- GI50 (EKVX NSCLC): 5.23 µM
- TGI (EKVX NSCLC): > 100 µM
- GI50 (UO-31 renal): 4.92 µM
- TGI (UO-31 renal): > 100 µM
- GI50 (NCI-H460 lung): 3.9 µM
- TGI (NCI-H460 lung): 24.4 µM
- GI50 (HT29 colon): 2700 nM
- TGI (HT29 colon): 12.1 µM
- GI50 (A549 NSCLC): 4.79 µM
- TGI (A549 NSCLC): > 100 µM
- GI50 (MOLT-4 leukemia): 3.1 µM
- TGI (MOLT-4 leukemia): 12.1 µM
- GI50 (OVCAR-8 ovarian): 6.67 µM
- TGI (OVCAR-8 ovarian): > 100 µM
- GI50 (SNB-75 CNS): 4.34 µM
- TGI (SNB-75 CNS): 80.8 µM
- GI50 (UACC-257 melanoma): 10.3 µM
- TGI (UACC-257 melanoma): 26 µM
- GI50 (SN12C renal): 9.78 µM
- TGI (SN12C renal): > 100 µM
- GI50 (OVCAR-4 ovarian): 11.3 µM
- TGI (OVCAR-4 ovarian): 63.9 µM
- GI50 (SNB-19 CNS): 11.6 µM
- TGI (SNB-19 CNS): > 100 µM
- GI50 (HS 578T breast): 8.56 µM
- TGI (HS 578T breast): 68.6 µM
- GI50 (ACHN renal): 11.9 µM
- TGI (ACHN renal): > 100 µM
- GI50 (HCT-15 colon): 2680 nM
- TGI (HCT-15 colon): 19.1 µM
- GI50 (LOX IMVI melanoma): 5.61 µM
- TGI (LOX IMVI melanoma): > 100 µM
- GI50 (MDA-MB-231 breast): 8.34 µM
- TGI (MDA-MB-231 breast): 65 µM
- GI50 (PC-3 prostate): 9.67 µM
- TGI (PC-3 prostate): 39.8 µM
- GI50 (IGROV1 ovarian): 7.94 µM
- TGI (IGROV1 ovarian): 85.2 µM
- GI50 (M14 melanoma): 3.99 µM
- TGI (M14 melanoma): > 100 µM
- GI50 (HOP-92 NSCLC): 3.1 µM
- TGI (HOP-92 NSCLC): 16.9 µM
- GI50 (SW-620 colon): 3.87 µM
- TGI (SW-620 colon): 28.8 µM
- GI50 (SR leukemia): 1210 nM
- TGI (SR leukemia): 5.22 µM
- GI50 (NCI-H522 lung): 4.53 µM
- TGI (NCI-H522 lung): 19 µM
- GI50 (K-562 leukemia): 3.01 µM
- TGI (K-562 leukemia): 12.3 µM
- GI50 (MCF7 breast): 3.08 µM
- TGI (MCF7 breast): 20.1 µM
- GI50 (NCI-H23 lung): 4.41 µM
- TGI (NCI-H23 lung): 42.7 µM
- GI50 (SF-295 CNS): 3.92 µM
- TGI (SF-295 CNS): > 100 µM
- GI50 (CCRF-CEM leukemia): 3.61 µM
- TGI (CCRF-CEM leukemia): 21.4 µM
- GI50 (SK-MEL-5 melanoma): 3.35 µM
- TGI (SK-MEL-5 melanoma): 17.2 µM
- GI50 (RPMI-8226 leukemia): 2520 nM
- TGI (RPMI-8226 leukemia): 9.04 µM
- GI50 (U251 CNS): 4.06 µM
- TGI (U251 CNS): 45.6 µM
- GI50 (SK-OV-3 ovarian): 4.38 µM
- TGI (SK-OV-3 ovarian): 54 µM
- GI50 (HL-60(TB) leukemia): 3.71 µM
- TGI (HL-60(TB) leukemia): > 100 µM
- GI50 (SF-539 CNS): 7.1 µM
- TGI (SF-539 CNS): > 100 µM
- GI50 (BT-549 breast): 7.76 µM
- TGI (BT-549 breast): 45.9 µM
- GI50 (HCT-116 colon): 4.23 µM
- TGI (HCT-116 colon): 46.2 µM
- GI50 (SK-MEL-28 melanoma): 6.89 µM
- TGI (SK-MEL-28 melanoma): 45.7 µM
- GI50 (MDA-MB-435): 1590 nM
- TGI (MDA-MB-435): 4.21 µM
- GI50 (COLO 205 colon): 7.3 µM
- TGI (COLO 205 colon): 26.1 µM
- GI50 (TK-10 renal): 17.1 µM
- TGI (TK-10 renal): 71.4 µM
- GI50 (RXF 393 renal): 2950 nM
- TGI (RXF 393 renal): 8.71 µM
- GI50 (UACC-62 melanoma): 3.92 µM
- TGI (UACC-62 melanoma): 76.3 µM
- GI50 (T-47D breast): 2430 nM
- TGI (T-47D breast): 17.1 µM
- GI50 (OVCAR-3 ovarian): 3.99 µM
- TGI (OVCAR-3 ovarian): 16.6 µM
- GI50 (DU-145 prostate): 10.3 µM
- TGI (DU-145 prostate): 77.7 µM
- GI50 (SK-MEL-2 melanoma): 6.05 µM
- TGI (SK-MEL-2 melanoma): 41.3 µM
- GI50 (KM12 colon): 3.55 µM
- TGI (KM12 colon): 22.4 µM
- GI50 (SF-268 CNS): 9.32 µM
- TGI (SF-268 CNS): > 100 µM
- GI50 (786-0 renal): 9.55 µM
- TGI (786-0 renal): > 100 µM
- GI50 (HCC-2998 colon): 3.97 µM
- TGI (HCC-2998 colon): 28.2 µM
- GI50 (NCI-H226 lung): 12.9 µM
- TGI (NCI-H226 lung): > 100 µM
- GI50 (MALME-3M melanoma): 5.04 µM
- TGI (MALME-3M melanoma): 31.7 µM
- GI50 (NCI/ADR-RES ovarian): 2860 nM
- TGI (NCI/ADR-RES ovarian): 9.34 µM
- GI50 (CAKI-1 renal): 15.8 µM
- TGI (CAKI-1 renal): > 100 µM
- GI50 (A498 renal): 5.06 µM
- TGI (A498 renal): 67.4 µM
- GI50 (OVCAR-5 ovarian): 6.3 µM
- TGI (OVCAR-5 ovarian): > 100 µM
